# Legend:
# Type in all cases: cell-based, human
# [1] = test system: secretion of IL-1 from LXFA 526 lung adenocarcinoma Xenograft explants; test: IL-1 secretion from LXFA 526 lung adenocarcinoma xenograft explants (ELISA); conditions: for IL-1 content of the supernatants: 24 hours, DMSO control 85.3 pg/ml
# Protocol: (§1) FIG. 1: Effects of Zardaverine (left graph) and Piclamilast (right graph) on the secretion of IL-1 from LXFA 526 lung adenocarcinoma Xenograft explants. Tumor fragments from mice carrying LXFA 526 xenografts were excised and cell suspensions were seeded into 24 Well plates. After seeding of the cells, Zardaverine at concentrations of 100, 3, and 0.1 μM, respectively, and Piclamilast at concentrations of 1, 0.3 and 0.001 μM, respectively were added and supernatants were harvested 24 hours later. IL-1 content of the supernatants was quantitated using R&D Quantikine ELISA kits according to the manufacturer's recommendations.
# (§2) To this end primary cultures of tumor cells were derived from cachexia inducing human xenografts grown subcutaneously in nude mice.
# (§3) 5 to 10 NMRI nude mice were implanted with tumor fragments derived from the above mentioned Xenografts and grown until the tumors reached approximately 0.5 g, which correlated well with the onset of cachexia. Animals were then sacrificed and tumors were excised. Cells were subsequently isolated under sterile conditions by the use of mechanic disintegrators, proteases, hyaluronidase, and DNAse I. The crude suspension was passed twice through sterile sieves with diameters of 200 and 50 μM, respectively.
# (§4) Washed cell pellets were resuspended in Iscove's modified Dulbecco's Medium +20% FCS (fetal calf serum) and 0.24 to 1×10^6 tumor cells were seeded in 24 well plates. The cell isolates not only contained tumor cells, but also blood cells and stromal elements of murine origin. The cell lines RXF 486L was directly utilized and 1×10^6 cells were seeded into each well.
# (§5) Piclamilast and Zardaverine were dissolved in 100% DMSO (dimethyl sulfoxide) and applied at a final concentration of 1 μM to 0.001 μM (Piclamilast) or 100 μM to 0.1 μM (Zardaverine). Drugs and cells were plated at the same time. 24 hours after seeding supernatants were collected, centrifuged, and stored at −80° C.
# (§6) For the quantitative measurement of IL-1, IL-6, and TNFα, respectively, the supernatants were analyzed using Quantikine ELISA Kits from R&D Systems according to the manufacturer's recommendations.
# [2] = test system: secretion of IL-1 from RXF 393 hypernephroma Xenograft explants; test: IL-1 secretion from RXF 393 hypernephroma xenograft explants (ELISA); conditions: for IL-1 content of the supernatants: 24 hours, DMSO control 46.9 pg/ml
# Protocol: as §1, with “2:” for “1:”, “RXF 393 hypernephroma” for “LXFA 526 lung adenocarcinoma”, “RXF 393” for “LXFA 526”, “100” for “100, 3,”, “0.01” for “0.3”
# as §2, §3, §4, §5, §6
# [3] = test system: secretion of TNFα from LXFA 526 lung adenocarcinoma Xenograft explants; test: TNFα secretion from LXFA 526 lung adenocarcinoma xenograft explants (ELISA); conditions: for TNFα content of the supernatants: 24 hours, DMSO control 16.8 pg/ml
# Protocol: as §1, with “3:” for “1:”, “TNFα” for “IL-1”
# as §2, §3, §4, §5, §6
# [4] = test system: secretion of TNFα from LXFE 397 epidermoid adenocarcinoma Xenograft explants; test: TNFα secretion from LXFE 397 epidermoid adenocarcinoma xenograft explants (ELISA); conditions: for TNFα content of the supernatants: 24 hours
# Protocol: FIG. 4: Effects of Zardaverine (left graph) and Piclamilast (right graph) on the secretion of TNFα from LXFE 397 epidermoid adenocarcinoma Xenograft explants. Tumor fragments from mice carrying LXFE 397 xenografts were excised and cell suspensions were seeded into 24 Well plates. After seeding of the cells, Zardaverine at concentrations of 30, 10, and 3 μM, respectively, and Piclamilast at concentrations of 0.3; 0.1; and 0.03 μM, respectively were added and supernatants were harvested 24 hours later. TNFα content of the supernatants was quantitated using R&D Quantikine ELISA kits according to the manufacturers recommendations.
# as §2, §3, §4, §5, §6
compound,measurement,setting,value
COc1cc(-c2ccc(=O)[nH]n2)ccc1OC(F)F [Zardaverine],IL-1 content of the supernatants,[1]; 0.1 μM,77.1 pg/mL
same,IL-1 content of the supernatants,[1]; 3 μM,67.9 pg/mL
same,IL-1 content of the supernatants,[1]; 100 μM,64.5 pg/mL
same,IL-1 content of the supernatants,[2]; 0.1 μM,48.1 pg/mL
same,IL-1 content of the supernatants,[2]; 100 μM,32.1 pg/mL
same,TNFα content of the supernatants,[3]; 0.1 μM,13.8 pg/mL
same,TNFα content of the supernatants,[3]; 3 μM,12.9 pg/mL
same,TNFα content of the supernatants,[3]; 100 μM,12.6 pg/mL
same,TNFα content of the supernatants,"[4]; 3 μM, DMSO control 30.3 pg/ml",27.7 pg/mL
same,TNFα content of the supernatants,"[4]; 10 μM, DMSO control 30.3 pg/ml",28.2 pg/mL
same,TNFα content of the supernatants,"[4]; 30 μM, DMSO control 30.3 pg/ml",20.1 pg/mL
COc1ccc(C(=O)Nc2c(Cl)cncc2Cl)cc1OC1CCCC1 [Piclamilast],IL-1 content of the supernatants,[1]; 0.001 μM,81.9 pg/mL
same,IL-1 content of the supernatants,[1]; 0.3 μM,64.4 pg/mL
same,IL-1 content of the supernatants,[1]; 1 μM,68.9 pg/mL
same,Modulation of IL-1 expression (in words),[1]; LXFA 526,able to suppress IL-1 levels
same,IL-1 content of the supernatants,[2]; 0.001 μM,43.2 pg/mL
same,IL-1 content of the supernatants,[2]; 0.01 μM,43.9 pg/mL
same,IL-1 content of the supernatants,[2]; 1 μM,37.8 pg/mL
same,Modulation of IL-1 expression (in words),[2]; RXF 393,able to suppress IL-1 levels
same,TNFα content of the supernatants,[3]; 0.001 μM,17.2 pg/mL
same,TNFα content of the supernatants,[3]; 0.3 μM,15.1 pg/mL
same,TNFα content of the supernatants,[3]; 1 μM,13.9 pg/mL
same,modulation of TNFα levels (in words),[3]; LXFA 526 cells,able to inhibit the secretion of TNFα
same,TNFα content of the supernatants,"[4]; 0.03 μM, DMSO control 21.5 pg/ml",14.1 pg/mL
same,TNFα content of the supernatants,"[4]; 0.1 μM, DMSO control 21.5 pg/ml",12.1 pg/mL
same,TNFα content of the supernatants,"[4]; 0.3 μM, DMSO control 21.5 pg/ml",10 pg/mL
same,modulation of TNFα levels (in words),[4]; LXFE 397 model,able to inhibit the secretion of TNFα
